# Source: US10464947B2 (Incyte Corporation, priority 2013, dated 2019)
# Tested on: KMS.12.BM cells
# Experiment: KMS.12.BM Cell Viability Assay (Example B1)
# Format: cell-based, human
# Conditions: Homo sapiens, 72 h, 3 days, Cell Titer-GLO, read-out: KMS cellular IC50
# Outline: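 KMS.12.BM human myeloma cells, 5000 cells/well in RPMI with 10% FBS, exposed to a compound concentration range for 3 days. Viable cells measured by ATP-based Cell Titer-GLO luminescence after 10 min at room temperature.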
row,Compound,IC50
1,"Cc1noc(C)c1-c1ccc2nc(N3CCC(NC(=O)C(F)(F)F)CC3)n3c2c1OC[C@@H]3c1ccccn1 [Example 242, N-{1-[(4S)-7-(3,5-dimethylisoxazol-4-yl)-4-pyridin-2-yl-4,5-dihydroimidazo[1,5,4-de][1,4]benzoxazin-2-yl]piperidin-4-yl}-2,2,2-trifluoroacetamide]",< 1 µM
2,"Cc1noc(C)c1-c1ccc2nc(N3CC[C@@H](NS(C)(=O)=O)C3)n3c2c1OC[C@@H]3c1ccccn1 [Example 207, N-{(3R)-1-[(4S)-7-(3,5-dimethylisoxazol-4-yl)-4-pyridin-2-yl-4,5-dihydroimidazo[1,5,4-de][1,4]benzoxazin-2-yl]pyrrolidin-3-yl}methanesulfonamide]",< 1 µM
3,"CCOC(=O)C1Oc2c(-c3c(C)noc3C)ccc3[nH]c(=O)n(c23)C1c1ccccc1 (stereo not shown) [Example 23, Ethyl 7-(3,5-dimethylisoxazol-4-yl)-2-oxo-4-phenyl-1,2,4,5-tetrahydroimidazo[1,5,4-de][1,4]benzoxazine-5-carboxylate]",< 1 µM
4,"Cc1noc(C)c1-c1ccc2nc(N3CC[C@@H](C(=O)NC(C)C)C3)n3c2c1OC[C@@H]3c1ccccn1 [Example 145, (3R)-1-[(4S)-7-(3,5-Dimethylisoxazol-4-yl)-4-pyridin-2-yl-4,5-dihydroimidazo[1,5,4-de][1,4]benzoxazin-2-yl]-N-isopropylpyrrolidine-3-carboxamide]",< 1 µM
5,"Cc1noc(C)c1-c1ccc2nc(C(=O)N(C)C)n3c2c1OC[C@@H]3c1ccccn1 [Example 91, (4S)-7-(3,5-Dimethylisoxazol-4-yl)-N,N-dimethyl-4-pyridin-2-yl-4,5-dihydroimidazo[1,5,4-de][1,4]benzoxazine-2-carboxamide]",< 1 µM
6,"Cc1noc(C)c1-c1ccc2[nH]c(=O)n3c2c1OCC3c1cccc[n+]1[O-] (stereo not shown) [Example 16, 7-(3,5-Dimethylisoxazol-4-yl)-4-(1-oxidopyridin-2-yl)-4,5-dihydroimidazo[1,5,4-de][1,4]benzoxazin-2(1H)-one]",< 1 µM
7,"Cc1noc(C)c1-c1ccc2nc(N3CC[C@@H](N(C)S(C)(=O)=O)C3)n3c2c1OC[C@@H]3c1ccccn1 [Example 220, N-{(3R)-1-[(4S)-7-(3,5-dimethylisoxazol-4-yl)-4-pyridin-2-yl-4,5-dihydroimidazo[1,5,4-de][1,4]benzoxazin-2-yl]pyrrolidin-3-yl}-N-methylmethanesulfonamide]",< 1 µM
8,"Cc1noc(C)c1-c1cc(F)c2nc(N3CCC(O)C3)n3c2c1OCC3c1cccnc1 (stereo not shown) [Example 157, 1-[7-(3,5-Dimethylisoxazol-4-yl)-9-fluoro-4-pyridin-3-yl-4,5-dihydroimidazo[1,5,4-de][1,4]benzoxazin-2-yl]pyrrolidin-3-ol]",< 1 µM
9,"CCC(=O)NC1CCN(c2nc3ccc(-c4c(C)noc4C)c4c3n2[C@@H](c2ccccn2)CO4)CC1 [Example 243, N-{1-[(4S)-7-(3,5-dimethylisoxazol-4-yl)-4-pyridin-2-yl-4,5-dihydroimidazo[1,5,4-de][1,4]benzoxazin-2-yl]piperidin-4-yl}propanamide]",< 1 µM
10,"Cc1noc(C)c1-c1ccc2nc(N3CCOCC3)n3c2c1OCC3c1ccccc1 (stereo not shown) [Example 53, 7-(3,5-Dimethylisoxazol-4-yl)-2-morpholin-4-yl-4-phenyl-4,5-dihydroimidazo[1,5,4-de][1,4]benzoxazine]",< 1 µM
11,"Cc1noc(C)c1-c1ccc2[nH]c(=S)n3c2c1OCC3c1ccccn1 (stereo not shown) [Example 255, 7-(3,5-Dimethylisoxazol-4-yl)-4-pyridin-2-yl-4,5-dihydroimidazo[1,5,4-de][1,4]benzoxazine-2(1H)-thione]",< 1 µM
12,"Cc1noc(C)c1-c1ccc2nc(N3CCC(C(N)=O)CC3)n3c2c1OC[C@@H]3c1ccccn1 [Example 188, 1-[(4S)-7-(3,5-dimethylisoxazol-4-yl)-4-pyridin-2-yl-4,5-dihydroimidazo[1,5,4-de][1,4]benzoxazin-2-yl]piperidine-4-carboxamide]",< 1 µM
13,"Cc1noc(C)c1-c1ccc2nc(N3CC(NC(=O)C4CCC4)C3)n3c2c1OC[C@@H]3c1ccccn1 [Example 236, N-{1-[(4S)-7-(3,5-dimethylisoxazol-4-yl)-4-pyridin-2-yl-4,5-dihydroimidazo[1,5,4-de][1,4]benzoxazin-2-yl]azetidin-3-yl}cyclobutanecarboxamide]",< 1 µM
14,"Cc1noc(C)c1-c1ccc2nc(N3CCN(c4ccccc4)CC3)n3c2c1OC[C@@H]3c1ccccn1 [Example 178, (4S)-7-(3,5-dimethylisoxazol-4-yl)-2-(4-phenylpiperazin-1-yl)-4-pyridin-2-yl-4,5-dihydroimidazo[1,5,4-de][1,4]benzoxazine]",< 1 µM
15,"Cc1noc(C)c1-c1ccc2nc(N3CCN(CC(=O)N4CCCC4)CC3)n3c2c1OC[C@@H]3c1ccccn1 [Example 228, (4S)-7-(3,5-dimethylisoxazol-4-yl)-2-[4-(2-oxo-2-pyrrolidin-1-ylethyl)piperazin-1-yl]-4-pyridin-2-yl-4,5-dihydroimidazo[1,5,4-de][1,4]benzoxazine]",< 1 µM
16,"Cc1noc(C)c1-c1ccc2nc(N3CCCN(S(C)(=O)=O)CC3)n3c2c1OC[C@@H]3c1ccccn1 [Example 149, (4S)-7-(3,5-Dimethylisoxazol-4-yl)-2-[4-(methylsulfonyl)-1,4-diazepan-1-yl]-4-pyridin-2-yl-4,5-dihydroimidazo[1,5,4-de][1,4]benzoxazine]",< 1 µM
17,"Cn1nccc1-c1cc(Br)c2[nH]c(=O)n3c2c1OCC3c1ccccc1 (stereo not shown) [Example 36, 9-Bromo-7-(1-methyl-1H-pyrazol-5-yl)-4-phenyl-4,5-dihydroimidazo[1,5,4-de][1,4]benzoxazin-2(1H)-one]",< 1 µM
18,"Cc1noc(C)c1-c1ccc2nc([C@@H](O)CO)n3c2c1OC[C@@H]3c1ccccn1 [Example 89, (1R)-1-[(4S)-7-(3,5-Dimethylisoxazol-4-yl)-4-pyridin-2-yl-4,5-dihydroimidazo[1,5,4-de][1,4]benzoxazin-2-yl]ethane-1,2-diol]",< 1 µM
19,"Cc1noc(C)c1-c1cc(Br)c2[nH]c(=O)n3c2c1OCC3c1ccccn1 (single isomer, unassigned) [Example 267B, 9-bromo-7-(3,5-dimethylisoxazol-4-yl)-4-pyridin-2-yl-4,5-dihydroimidazo[1,5,4-de][1,4]benzoxazin-2(1H)-one]",< 1 µM
20,"CCN1CCN(c2nc3ccc(-c4c(C)noc4C)c4c3n2[C@@H](c2ccccn2)CO4)CC1 [Example 192, (4S)-7-(3,5-dimethylisoxazol-4-yl)-2-(4-ethylpiperazin-1-yl)-4-pyridin-2-yl-4,5-dihydroimidazo[1,5,4-de][1,4]benzoxazine]",< 1 µM
21,"Cc1noc(C)c1-c1ccc2nc(N3CC(NS(=O)(=O)C(C)C)C3)n3c2c1OC[C@@H]3c1ccccn1 [Example 239, N-{1-[(4S)-7-(3,5-dimethylisoxazol-4-yl)-4-pyridin-2-yl-4,5-dihydroimidazo[1,5,4-de][1,4]benzoxazin-2-yl]azetidin-3-yl}propane-2-sulfonamide]",< 1 µM
22,"Cc1noc(C)c1-c1ccc2nc(-c3ccccc3)n3c2c1OCC3c1ccccc1 (stereo not shown) [Example 41, 7-(3,5-Dimethylisoxazol-4-yl)-2,4-diphenyl-4,5-dihydroimidazo[1,5,4-de][1,4]benzoxazine]",< 1 µM
23,"COc1cccc(C2COc3c(-c4c(C)noc4C)ccc4[nH]c(=O)n2c34)c1 (stereo not shown) [Example 6, 7-(3,5-Dimethylisoxazol-4-yl)-4-(3-methoxyphenyl)-4,5-dihydroimidazo[1,5,4-de][1,4]benzoxazin-2(1H)-one]",< 1 µM
24,"Cc1noc(C)c1-c1ccc2nc(N3CCC[C@@H](O)C3)n3c2c1OC[C@@H]3c1ccccn1 [Example 170A, (3R)-1-[(4S)-7-(3,5-dimethylisoxazol-4-yl)-4-pyridin-2-yl-4,5-dihydroimidazo[1,5,4-de][1,4]benzoxazin-2-yl]piperidin-3-ol]",< 1 µM

# Same assay, conditions: Homo sapiens, KMS-12-BM, 72 h, 3 days, Cell Titer-GLO, read-out: KMS cellular IC50
row,Compound,IC50
1,"Cc1noc(C)c1-c1cc(C#N)c2[nH]c(=O)n3c2c1OCC3c1ccccn1 (stereo not shown) [Example 269A, 7-(3,5-dimethylisoxazol-4-yl)-2-oxo-4-pyridin-2-yl-1,2,4,5-tetrahydroimidazo[1,5,4-de][1,4]benzoxazine-9-carbonitrile]",< 1 µM
2,"Cc1noc(C)c1-c1cc(-c2ccc(O)nc2)c2[nH]c(=O)n3c2c1OC[C@@H]3c1ccccn1 [Example 259, (4S)-7-(3,5-dimethylisoxazol-4-yl)-9-(6-hydroxypyridin-3-yl)-4-pyridin-2-yl-4,5-dihydroimidazo[1,5,4-de][1,4]benzoxazin-2(1H)-one]",1 to 10 µM
3,"Cc1cc(-c2ccnn2C)c2c3c1[nH]c(=O)n3C(c1ccccc1)CO2 (stereo not shown) [Example 37, 9-Methyl-7-(1-methyl-1H-pyrazol-5-yl)-4-phenyl-4,5-dihydroimidazo[1,5,4-de][1,4]benzoxazin-2(1H)-one]",< 1 µM
4,"Cc1noc(C)c1-c1ccc2nc(N3CCNCC3)n3c2c1OCC3c1ccccc1 (stereo not shown) [Example 40, 7-(3,5-Dimethylisoxazol-4-yl)-4-phenyl-2-piperazin-1-yl-4,5-dihydroimidazo[1,5,4-de][1,4]benzoxazine]",< 1 µM
5,"Cc1noc(C)c1-c1ccc2[nH]c(=O)n3c2c1OCC3c1cccnc1C(=O)N(C)C (stereo not shown) [Example 129, 3-[7-(3,5-Dimethylisoxazol-4-yl)-2-oxo-1,2,4,5-tetrahydroimidazo[1,5,4-de][1,4]benzoxazin-4-yl]-N,N-dimethylpyridine-2-carboxamide]",< 1 µM
6,"Cc1noc(C)c1-c1ccc2nc(N3CCC(C)(O)C3)n3c2c1OC[C@@H]3c1ccccn1 (mixture of isomers) [Example 146C, 1-[(4S)-7-(3,5-Dimethylisoxazol-4-yl)-4-pyridin-2-yl-4,5-dihydroimidazo[1,5,4-de][1,4]benzoxazin-2-yl]-3-methylpyrrolidin-3-ol]",< 1 µM
7,"Cc1noc(C)c1-c1cc(F)c2[nH]c(=O)n3c2c1OCC3c1ccccn1 (stereo not shown) [Example 265B, 7-(3,5-dimethylisoxazol-4-yl)-9-fluoro-4-pyridin-2-yl-4,5-dihydroimidazo[1,5,4-de][1,4]benzoxazin-2(1H)-one]",< 1 µM
